Test results reported in patent publication US20030187240A1, “2' -modified oligonucleotides” (ISIS Pharmaceuticals, Inc., priority 1990, published 2003).
Where “and” joins values, the source holds several entries; their conditions need not be identical. Equal entries are not always repeated. Entries after “also recorded” stand apart in the source; their conditions may differ. d = 2'-deoxy (DNA); m = 2'-O-methyl

Key:
[1] = test system: T24 cancer cell proliferation; experiment: Inhibition of proliferation of cancer cells; type: cell-based, human; conditions: for inhibition of cell proliferation / IC50: T24 cells; for IC50: dose-response study
Description: Cells were cultured and treated with oligonucleotide essentially as described in Example 27. Cells were seeded on 60 mm plates and were treated with oligonucleotide in the presence of DOTMA when they reached 70% confluency. Time course experiment: On day 1, cells were treated with a single dose of oligonucleotide at a final concentration of 100 nM. The growth medium was changed once on day 3 and cells were counted every day for 5 days, using a counting chamber. Dose-response experiment: Various concentrations of oligonucleotide (10, 25, 50, 100 or 250 nM) were added to the cells and cells were harvested and counted 3 days later. Oligonucleotides 2570, 3985 and 4690 were tested for effects on T24 cancer cell proliferation.

[2] = test system: ras mRNA; experiment: Northern blot analysis of ras expression in T24 cells; type: cell-based, human; set-up: inhibition of ras expression / decrease of ras mRNA: concentration or dose not given beside the values; conditions: for inhibition of ras expression in T24 cells: result in words
Description: (§1) The human urinary bladder cancer cell line T24 was obtained from the American Type Culture Collection (Rockville Md.). Cells were grown in McCoy's 5A medium with L-glutamine (GIBCO-BRL, Gaithersburg, Md.), supplemented with 10% heat-inactivated fetal calf serum and 50 U/ml each of penicillin and streptomycin. Cells were seeded on 100 mm plates. When they reached 70% confluency, they were treated with oligonucleotide. Plates were washed with 10 ml prewarmed PBS and 5 ml of OptiMEM (GIBCO) reduced-serum medium containing 2.5 μl DOTMA. Oligonucleotide was then added to the desired concentration. After 4 hours of treatment, the medium was replaced with McCoy's medium. Cells were harvested 48 hours after oligonucleotide treatment and RNA was isolated using a standard CsCl purification method. [Kingston in Current Protocols in Molecular Biology, F. M. Ausubel, R. Brent, R. E. Kingston, D. D. Moore, J. A. Smith, J. G. Seidman and K. Strahl, Eds., John Wiley and Sons, New York.] The human epithelioid carcinoma cell line HeLa 229 was obtained from the American Type Culture Collection (Bethesda, Md.). HeLa cells were maintained as monolayers on 6-well plates in Dulbecco's Modified Eagle's medium (DMEM) supplemented with 10 fetal bovine serum and 100 U/ml penicillin. Treatment with oligonucleotide and isolation of RNA were essentially as described above for T24 cells.
Northern hybridization: 10 μg of each RNA was electrophoresed on a 1.2% agarose/formaldehyde gel and transferred overnight to GeneBind 45 nylon membrane (Pharmacia LKB, Piscataway, N.J.) using standard methods. [Kingston in Current Protocols in Molecular Biology, F. M. Ausubel, R. Brent, R. E. Kingston, D. D. Moore, J. A. Smith, J. G. Seidman and K. Strahl, Eds., John Wiley and Sons, New York.] RNA was UV-crosslinked to the membrane. Double-stranded ^32P-labeled probes were synthesized using the Prime a Gene labeling kit (Promega, Madison Wis.). The ras probe was a SalI-NheI fragment of a cDNA clone of the activated (mutant) H-ras mRNA having a GGC-to-GTC mutation at codon-12. The control probe was G3PDH. Blots were prehybridized for 15 minutes at 68° C. with the QuickHyb hybridization solution (Stratagene, La Jolla, Calif.). The heat-denatured radioactive probe (2.5×10^6 counts/2 ml hybridization solution) mixed with 100 μl of 10 mg/ml salmon sperm DNA was added and the membrane was hybridized for 1 hour at 68° C. The blots were washed twice for 15 minutes at room temperature in 2×SSC/0.1% SDS and once for 30 minutes at 60° C. with 0.1×SSC/0.1%SDS. Blots were autoradiographed and the intensity of signal was quantitated using an ImageQuant PhosphorImager (Molecular Dynamics, Sunnyvale, Calif.). Northern blots were first hybridized with the ras probe, then stripped by boiling for 15 minutes in 0.1×SSC/0.1%SDS and rehybridized with the control G3PDH probe to check for correct sample loading.

[3] = test system: codon-12 point mutation of mutant (activated) H-ras RNA; type: cell-based, human
[4] = test system: crude HeLa cellular extracts
[5] = test system: H-ras; experiment: ras transactivation reporter gene assay; type: cell-based; conditions: antisense activity against H-ras, 17-mer with 7-deoxy gap
Source text: The expression plasmid pSV2-oli, containing an activated (codon 12, GGC→GTC) H-ras cDNA insert under control of the constitutive SV40 promoter, was a gift from Dr. Bruno Tocque (Rhone-Poulenc Sante, Vitry, France). This plasmid was used as a template to construct, by PCR, a H-ras expression plasmid under regulation of the steroid-inducible mouse mammary tumor virus (MMTV) promoter. To obtain H-ras coding sequences, the 570 bp coding region of the H-ras gene was amplified by PCR. The PCR primers were designed with unique restriction endonuclease sites in their 5′-regions to facilitate cloning. The PCR product containing the coding region of the H-ras codon 12 mutant oncogene was gel purified, digested, and gel purified once again prior to cloning. This construction was completed by cloning the insert into the expression plasmid pMAMneo (Clontech Laboratories, Calif.).
The ras-responsive reporter gene pRD053 was used to detect ras expression. [Owen et al., Proc. Natl. Acad. Sci. U.S.A., 87, 3866 (1990).

[6] = test system: 25 mer oligoribonucleotide complement; experiment: Melting curves of 2′-modified 17-mers with 7-deoxy gap; type: binding; conditions: 17-mer with 7-deoxy gap hybridized with 25 mer oligoribonucleotide complement
Source text: This is attributed to these phosphodiester compounds being substrates for nucleases that degrade such phosphodiester compounds thus preventing them potentially activating RNase H. Other sugar modifications: The effects of other 2′ sugar modifications besides 2′-O-methyl on antisense activity in chimeric oligonucleotides have been examined. These modifications are listed in Table 4, along with the Tm values obtained when 17 mer oligonucleotides having 2′-modified nucleotides flanking a 7-base deoxy gap were hybridized with a 25 mer oligoribonucleotide complement as described in Example 25. […] As alkyl length increased, Tm decreased.
Absorbance vs. temperature curves were measured at 260 nm using a Gilford 260 spectrophotometer interfaced to an IBM PC computer and a Gilford Response II spectrophotometer. The buffer contained 100 mM Na^+, 10 mM phosphate and 0.1 mM EDTA, pH 7. Oligonucleotide concentration was 4 μM each strand determined from the absorbance at 85° C. and extinction coefficients calculated according to Puglisi and Tinoco [Methods in Enzymol., 180, 304 (1989). Tm values, free energies of duplex formation and association constants were obtained from fits of data to a two state model with linear sloping baselines. [Petersheim and Turner, Biochemistry, 22, 256 (1983). Reported parameters are averages of at least three experiments. For some oligonucleotides, free energies of duplex formation were also obtained from plots of Tm^−1 vs log10 (concentration). Borer et al., J. Mol. Biol., 86, 843 (1974).

[7] = test system: ras expression in HeLa cells (wild-type H-ras codon-12); experiment: Northern blot analysis of ras expression in HeLa cells; type: cell-based, human
Description: as §1, with “The human epithelioid carcinoma cell line HeLa 229 was obtained from the American Type Culture Collection (Bethesda, Md.). HeLa cells were maintained as monolayers on 6-well plates in Dulbecco's Modified Eagle's medium (DMEM) supplemented with 10 fetal bovine serum and 100 U/ml penicillin. Treatment with oligonucleotide and isolation of RNA were essentially as described above for T24 cells.” left out
Northern hybridization: 10 μg of each RNA was electrophoresed on a 1.2% agarose/formaldehyde gel and transferred overnight to GeneBind 45 nylon membrane (Pharmacia LKB, Piscataway, N.J.) using standard methods. […] Blots were autoradiographed and the intensity of signal was quantitated using an ImageQuant PhosphorImager (Molecular Dynamics, Sunnyvale, Calif.). […]

[8] = test system: c-raf mRNA; experiment: Northern blot analysis of inhibition of c-raf mRNA expression in T24 cells; type: cell-based, human
Source text: Chimeric oligonucleotides having SEQ ID NO: 7 were designed using the Genbank c-raf sequence HUMRAFR (Genbank listing x03484), synthesized and tested for inhibition of c-raf mRNA expression in T24 bladder carcinoma cells using a Northern blot assay. These chimeric oligonucleotides have central “gap” regions of 6, 8 or 10 deoxynucleotides flanked by two regions of 2′-O-methyl modified nucleotides, and are shown in Table 10. Backbones were uniformly phosphorothioate. […] These oligonucleotides are preferred.
The human urinary bladder cancer cell line T24 was obtained from the American Type Culture Collection (Rockville, Md.). Cells were grown in McCoy's 5A medium with L-glutamine (GIBCO-BRL, Gaithersburg, Md.), supplemented with 10% heat-inactivated fetal calf serum and 50 U/ml each of penicillin and streptomycin. Cells were seeded on 100 mm plates. When they reached 70% confluency, they were treated with oligonucleotide. Plates were washed with 10 ml prewarmed PBS and 5 ml of OptiMEM reduced-serum medium containing 2.5 μl DOTMA. Oligonucleotide with lipofectin was then added to the desired concentration. After 4 hours of treatment, the medium was replaced with McCoy's medium. Cells were harvested 24 to 72 hours after oligonucleotide treatment and RNA was isolated using a standard CsCl purification method. [Kingston in Current Protocols in Molecular Biology, F. M. Ausubel, R. Brent, R. E. Kingston, D. D. Moore, J. A. Smith, J. G. Seidman and K. Strahl, Eds., John Wiley and Sons, New York.] Total RNA was isolated by centrifugation of cell lysates over a CsCl cushion. RNA samples were electrophoresed through 1.2% agarose-formaldehyde gels and transferred to hybridization membranes by capillary diffusion over a 12-14 hour period. The RNA was cross-linked to the membrane by exposure to UV light in a Stratalinker (Stratagene, La Jolla, Calif.) and hybridized to random-primed ^32P-labeled c-raf cDNA probe (obtained from ATCC) or G3PDH probe as a control. RNA was quantitated using a Phosphorimager (Molecular Dynamics, Sunnyvale, Calif.).

| Substance | inhibition of cell proliferation [1] [%] | IC50 [1] [µM] | inhibition of ras expression / decrease of ras mRNA [2] | inhibition of ras-luciferase activity [3] | inhibition of ras expression in T24 cells [2] | inhibition of ras expression in HeLa cells [7] | inhibition of c-raf mRNA expression [8] | also measured |
| --- | --- | --- | --- | --- | --- | --- | --- | --- |
| 3985 (CCACACCGACGGCGCCC; 2'-O-methyl wings, phosphorothioate, wing lengths not given here) [Oligonucleotide 3985] | 82 | 0.061 | 95% and 81% | greatest inhibition |  |  |  |  |
| CdCdAd CdAdCd CdGdAd CdGdGd CdGdCd CdCd [Oligonucleotide 2570, reference compound] | 61 | 0.098 | 82% | dose-dependent inhibition of ras-luciferase activity | inhibited ras expression in T24 cells; also recorded: decreased ras mRNA levels in T24 cells | did not inhibit ras expression in HeLa cells |  | inhibition of T24 cell proliferation relative to inhibition of HeLa cells ([1]; 100 nM oligonucleotide concentration): four times as severe; degradation in HeLa cell extract [4]: no degradation after 5 hours; IC50 [5]: 0.15 µM; Tm (° C.) [6]: 6 °C; selectivity toward the mutant form of ras-luciferase as compared to the normal form [3]: approximate threefold selectivity |
| T C C G T C AT C G C T C C T C A G G G [Oligonucleotide 2503] |  |  | 71% |  | inhibited ras expression in T24 cells | inhibited ras expression in HeLa cells |  |  |
| TCCCGCCTGTGACATGCATT (sugars from the 5' end m7 d6 m7, all phosphorothioate, T or U not given here) [Oligonucleotide 6720] |  |  |  |  |  |  | greater than 70% |  |
| TCCTCCTCCCCGCGGCGGGT (sugars from the 5' end m11 d9, all phosphorothioate, T or U not given here) [Oligonucleotide 7848] |  |  |  |  |  |  | > 70% |  |
